# Assay results from US12180207B2 (ARRAY BIOPHARMA INC., priority 2018, dated 2024).
# Biological target: HEK-293 cells transfected with dox-inducible human wild type FGFR1 (Homo sapiens (Human), UniProt P11362)
# Test: FGFR1 pFGFR cell assay (ELISA)
# Assay type: cell-based
# Details: HEK-293 dox-inducible FGFR1, 1 hour compound
# Protocol: FGFR1 pFGFR Cell Assay: • HEK-293 cells transfected with dox-inducible human wild type FGFR1 (SEQ ID NO: 1) were plated in a collagen or poly-D-lysine coated 96 well flat bottom plates at 4×10^5 cells/well in complete DMEM medium containing 10% FBS and 1 μg/ml doxycycline and allowed to attach for 24 h at 37° C., 5% CO2. Cells were treated with compound using 1:3 serial dilutions with a maximum final concentration of 5 μM. Compound was incubated on cells for 1 hour at 37° C., 5% CO2. Medium was removed, and cells were lysed with lysis buffer containing phosphatase and protease inhibitors. Phospho FGFR1 was measured by ELISA (R&D Systems cat. no. DYC5079 or Cell Signaling Technology cat. no. 12909). The ELISA captures total FGFR1 and detects total phospho tyrosine. Optical density was measured for each well using a Versamax reader at a wavelength of 450 nm. 100 POC was determined using no test compounds and 0 POC was determined using a control compound. The POC values were fit to a 4-parameter logistic curve as a function of the concentration of the compound, and the IC50 value is the point where the curve crosses 50 POC.
# Chain of HEK-293 cells transfected with dox-inducible human wild type FGFR1 (P11362 22-822): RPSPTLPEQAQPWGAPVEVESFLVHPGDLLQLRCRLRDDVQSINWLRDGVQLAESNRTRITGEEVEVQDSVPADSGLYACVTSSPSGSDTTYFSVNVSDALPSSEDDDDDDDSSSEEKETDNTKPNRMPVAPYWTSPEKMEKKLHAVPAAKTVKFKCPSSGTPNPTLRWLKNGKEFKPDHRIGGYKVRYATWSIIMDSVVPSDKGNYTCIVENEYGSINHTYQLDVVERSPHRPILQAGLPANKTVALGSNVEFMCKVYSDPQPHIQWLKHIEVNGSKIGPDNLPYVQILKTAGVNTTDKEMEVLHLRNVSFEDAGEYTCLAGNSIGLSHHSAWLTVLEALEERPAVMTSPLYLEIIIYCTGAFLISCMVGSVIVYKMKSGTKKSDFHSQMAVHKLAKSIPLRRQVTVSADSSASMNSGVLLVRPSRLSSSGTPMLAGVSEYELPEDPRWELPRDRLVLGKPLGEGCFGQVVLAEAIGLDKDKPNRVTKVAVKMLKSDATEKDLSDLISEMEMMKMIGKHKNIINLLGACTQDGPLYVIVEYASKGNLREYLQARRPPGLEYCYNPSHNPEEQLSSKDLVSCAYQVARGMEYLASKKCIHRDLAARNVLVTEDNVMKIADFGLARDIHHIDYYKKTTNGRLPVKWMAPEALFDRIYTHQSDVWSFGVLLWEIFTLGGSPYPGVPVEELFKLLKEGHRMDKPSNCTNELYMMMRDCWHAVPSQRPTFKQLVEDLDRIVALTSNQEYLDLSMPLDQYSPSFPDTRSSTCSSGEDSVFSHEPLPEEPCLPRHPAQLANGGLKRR
row,IC50 [nM],Compound
1,123,"C=CC(=O)Nc1ccc(C(=O)N2CCC(n3cc(-c4cc(OC)c5c(C#N)cnn5c4)cn3)CC2)cc1 [Example 177, N-(4-(4-(4-(3-cyano-4-methoxypyrazolo[1,5-a]pyridin-6-yl)-1H-pyrazol-1-yl)piperidine-1-carbonyl)phenyl)acrylamide]"

# Biological target: HEK-293 cells transfected with dox-inducible human wild type FGFR2 (Homo sapiens (Human), UniProt P21802)
# Sequence (P21802 22-821): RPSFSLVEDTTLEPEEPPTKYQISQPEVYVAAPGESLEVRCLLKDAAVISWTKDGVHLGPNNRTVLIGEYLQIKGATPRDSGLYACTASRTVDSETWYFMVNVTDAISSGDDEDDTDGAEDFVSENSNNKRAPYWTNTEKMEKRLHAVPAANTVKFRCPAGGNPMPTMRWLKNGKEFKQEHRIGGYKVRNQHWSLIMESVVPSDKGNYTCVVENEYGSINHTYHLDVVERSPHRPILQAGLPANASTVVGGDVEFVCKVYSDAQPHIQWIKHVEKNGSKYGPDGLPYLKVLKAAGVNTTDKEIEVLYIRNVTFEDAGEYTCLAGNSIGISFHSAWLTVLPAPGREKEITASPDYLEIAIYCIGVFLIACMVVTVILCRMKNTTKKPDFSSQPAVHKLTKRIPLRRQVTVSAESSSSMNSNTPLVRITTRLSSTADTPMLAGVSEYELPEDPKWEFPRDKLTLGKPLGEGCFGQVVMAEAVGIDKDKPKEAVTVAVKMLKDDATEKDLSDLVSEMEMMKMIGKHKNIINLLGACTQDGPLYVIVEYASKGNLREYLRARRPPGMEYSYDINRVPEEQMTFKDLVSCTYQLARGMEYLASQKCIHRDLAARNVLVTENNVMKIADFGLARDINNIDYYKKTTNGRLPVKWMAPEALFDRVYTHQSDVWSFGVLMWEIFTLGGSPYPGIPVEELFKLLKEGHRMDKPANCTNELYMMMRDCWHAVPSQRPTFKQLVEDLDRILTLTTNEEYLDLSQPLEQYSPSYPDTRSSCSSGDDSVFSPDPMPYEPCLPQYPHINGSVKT
# Test: FGFR2 pFGFR cell assay (ELISA)
# Assay type: cell-based
# Details: HEK-293 dox-inducible FGFR2, 1 hour compound, 30 ng/ml FGF-acidic
# Protocol: FGFR2 pFGFR Cell Assay: • HEK-293 cells transfected with dox-inducible human wild type FGFR2 (SEQ ID NO: 3) were plated in a collagen or poly-D-lysine coated 96 well flat bottom plates at 4×10^5 cells/well in complete DMEM medium containing 10% FBS and 1 μg/ml doxycycline and allowed to attach for 24 h at 37° C., 5% CO2. Cells were treated with compound using 1:3 serial dilutions with a maximum final concentration of 5 μM. Compound was incubated on cells for 1 hour at 37° C., 5% CO2. Cells were then stimulated with a final concentration of 30 ng/ml human FGF-acidic (R&D Systems Cat number 232-FA/CF) for 5 minutes at 37° C., 5% CO2. Medium was removed and cells were lysed with lysis buffer containing phosphatase and protease inhibitors. Phospho FGFR2 was measured by ELISA (R&D Systems cat. no. DYC684). The ELISA captures total FGFR2 and detects total phospho tyrosine. Optical density was measured for each well using a Versamax reader at a wavelength of 450 nm. 100 POC was determined using no test compounds and 0 POC was determined using a control compound. The POC values were fit to a 4-parameter logistic curve as a function of the concentration of the compound, and the IC50 value is the point where the curve crosses 50 POC.
row,Compound,IC50 [nM]
1,"C=CC(=O)N1CC(C(=O)N2CCC(n3cc(-c4cc(OC)c5c(C#N)cnn5c4)cn3)CC2)C1(C)C (centres unmarked) [Example 43, 6-(1-(1-(1-acryloyl-2,2-dimethylazetidine-3-carbonyl)piperidin-4-yl)-1H-pyrazol-4-yl)-4-methoxypyrazolo[1,5-a]pyridine-3-carbonitrile]",79
2,"C=CC(=O)N1CC(C(=O)N2C3CCC2CN(c2ccc(-c4cc(OC)c5c(C#N)cnn5c4)cn2)C3)C1 [Example 50, 6-(6-(8-(1-acryloylazetidine-3-carbonyl)-3,8-diazabicyclo[3.2.1]octan-3-yl)pyridin-3-yl)-4-methoxypyrazolo[1,5-a]pyridine-3-carbonitrile]",178
3,"C=CC(=O)N1CC(C(=O)N2CC3CCC(C2)N3c2ccc(-c3cc(OC)c4c(C#N)cnn4c3)cn2)C1 [Example 51, 6-(6-(3-(1-acryloylazetidine-3-carbonyl)-3,8-diazabicyclo[3.2.1]octan-8-yl)pyridin-3-yl)-4-methoxypyrazolo[1,5-a]pyridine-3-carbonitrile]",433
4,"C=CC(=O)N1CC(C(=O)N2C3CC2CN(c2ccc(-c4cc(OC)c5c(C#N)cnn5c4)cn2)C3)C1 [Example 52, 6-(6-(6-(1-acryloylazetidine-3-carbonyl)-3,6-diazabicyclo[3.1.1]heptan-3-yl)pyridin-3-yl)-4-methoxypyrazolo[1,5-a]pyridine-3-carbonitrile]",766
5,"C=CC(=O)N1CC(F)(C(=O)N2CCC(n3ncc(-c4cc(OC)c5c(C#N)cnn5c4)c3C)CC2)C1 [Example 85, 6-(1-(1-(1-acryloyl-3-fluoroazetidine-3-carbonyl)piperidin-4-yl)-5-methyl-1H-pyrazol-4-yl)-4-methoxypyrazolo[1,5-a]pyridine-3-carbonitrile]",61

# Results, then the molecule that gave them:
row,IC50 [nM],Compound
1,143,"C=CC(=O)N1CC(OC)(C(=O)N2CCC(n3ncc(-c4cc(OC)c5c(C#N)cnn5c4)c3C)CC2)C1 [Example 88, 6-(1-(1-(1-acryloyl-3-methoxyazetidine-3-carbonyl)piperidin-4-yl)-5-methyl-1H-pyrazol-4-yl)-4-methoxypyrazolo[1,5-a]pyridine-3-carbonitrile]"
2,96,"C=CC(=O)N1CC(CN2CCC(n3ncc(-c4cc(OC)c5c(C#N)cnn5c4)c3C)CC2)C1 [Example 89, 6-(1-(1-((1-acryloylazetidin-3-yl)methyl)piperidin-4-yl)-5-methyl-1H-pyrazol-4-yl)-4-methoxypyrazolo[1,5-a]pyridine-3-carbonitrile]"
3,109,"C=CC(=O)N1CC(C)(CN2CCC(n3ncc(-c4cc(OC)c5c(C#N)cnn5c4)c3C)CC2)C1 [Example 90, 6-(1-(1-((1-acryloyl-3-methylazetidin-3-yl)methyl)piperidin-4-yl)-5-methyl-1H-pyrazol-4-yl)-4-methoxypyrazolo[1,5-a]pyridine-3-carbonitrile]"
4,108,"C=CC(=O)N1CC(CN2CCC(n3ncc(-c4cc(OC)c5c(C#N)cnn5c4)c3C)CC2)(OC)C1 [Example 91, 6-(1-(1-((1-acryloyl-3-methoxyazetidin-3-yl)methyl)piperidin-4-yl)-5-methyl-1H-pyrazol-4-yl)-4-methoxypyrazolo[1,5-a]pyridine-3-carbonitrile]"
5,160,"C=CS(=O)(=O)Nc1cccc(C(=O)N2CCC(n3cc(-c4cc(OC)c5c(C#N)cnn5c4)cn3)CC2)c1 [Example 188, N-(3-(4-(4-(3-cyano-4-methoxypyrazolo[1,5-a]pyridin-6-yl)-1H-pyrazol-1-yl)piperidine-1-carbonyl)phenyl)eth-enesulfonamide]"
